In US20240191226A1, “SMAD2 INHIBITION IN BETA CELLS FOR TYPE 2 DIABETES THERAPY” (University of Pittsburgh - Of the Commonwealth System of …, priority 2021, published 2024):

How the values were obtained:
smad2 [1] = experiment: AAV6-GFP-U6-mSMAD2_shRNA treatment of Min6 cells, Western blot and RT-PCR; format: cell-based
Method: (§1) FIGS. 19A-19C. AAV6-GFP-U6-mSMAD2_shRNA treatment in vitro blocks smad2 expression in MIN6 and Beta-TC cell lines. […] Phospho smad2 expression is nearly absent in Min6 cells after AAV6-GFP-U6-mSMAD2_shRNA treatment (B). […] Similar experiments can be performed in human beta cell lines (EndoC-bH5, Human Cell Design) and primary human beta cells.
(§2) FIGS. 19A-19C show results from experiments where Min6 cells or beta-TC cells were treated with AAV6-GFP-U6-mSMAD2_shRNA for three days. A lysate was prepared from total or sorted cells. RT-PCR, and Western blot for Smad2, phospho Smad2 and Beta-actin was performed. […] Phospho smad2 expression is nearly absent in Min6 cells after AAV6-GFP-U6-mSMAD2_shRNA treatment (FIG. 19B).

smad2 [2] = experiment: AAV6-GFP-U6-mSMAD2_shRNA treatment of beta-TC cells, Western blot; format: cell-based; conditions: beta-TC cells sorted after transfection, treated for three days, Western blot (FIG. 19A)
Method: as §1, §2

AAV6-GFP-U6-mSMAD2_shRNA: AAV6 construct with smad2 shRNA sequence SEQ ID NO: 34, targeting sequence SEQ ID NO: 35 (DNA CCGGTGGTGTTCAATCGCATACTATCTCGAGATAGTATGCGATTGAACACCATTTTTG)
smad2 expression (smad2 [1]; Min6 cells sorted after transfection, treated for three days, Western blot (FIG. 19A)): near complete ablation
Phospho smad2 expression (smad2 [1]; Min6 cells, treated for three days, Western blot (FIG. 19B)): nearly absent
RT-PCR quantification of MIN6 mRNA (smad2) (smad2 [1]; sorted MIN6 cells, treated for three days (FIG. 19C)): complete absence
smad2 expression (smad2 [2]): near complete ablation
